We go through 48 sequences from the OligoGym collection.

Several values for one entry are separate records, joined by “and”; a condition that tells them apart may be missing. Equal entries are not always repeated. After the bases stand the sugars from the 5' end (letter, count) and the backbone: PS all phosphorothioate, else s phosphorothioate and o phosphodiester by linkage. Methylation of C is not given here. e = 2'-O-(2-methoxyethyl) (MOE); k = constrained ethyl (cEt); d = 2'-deoxy (DNA)

The target in this data set is APOL1. Conditions: ASO.

For “TCAGATGGGTACTTCT (sugars kkddddkekekkdddd, PS)”, the target mRNA inhibition (A431, 2 µM) was determined as 62%.
In turn, “ATTCAGAATTTCCACT (sugars kkkddddkekekdddd, PS)” registered a target mRNA inhibition (A431, 2 µM) of 56%.
With “GAATTATGGAATTGCA (sugars kkkddddkekekdddd, PS)”, the target mRNA inhibition (A431, 2 µM) stood at 61%.
GATTTTCCAACAAGGT (sugars k4 d9 k3, PS) returned a target mRNA inhibition (A431, 0.0625 µM) of 54%; a target mRNA inhibition (A431, 0.25 µM) of 80%; a target mRNA inhibition (A431, 1 µM) of 92%.
“TTGTAAGTGCAACCAA (sugars k2 d4 e4 k2 d4, PS)”: the target mRNA inhibition (A431, 2 µM) is 70%.
In the case of “GCAGTTTTGTAAGTGC (sugars kkkddddkekeddddd, PS)”, the target mRNA inhibition (A431, 2 µM) was determined as 60%.
As to GAGCGATTGTCTTGTT (sugars k4 d9 k3, PS), the target mRNA inhibition is 62% and 83% (A431, 0.0625 µM); 85% and 92% (A431, 0.25 µM); 92% and 95% (A431, 1 µM).
“TAATTCTATTAGAGGG (sugars kkkddddkekekdddd, PS)” registered a target mRNA inhibition (A431, 2 µM) of 41%.
In the case of “GCTTTAAACTCAGGTG (sugars kkddddkekekddddd, PS)”, the target mRNA inhibition (A431, 2 µM) worked out at 86%.
In the case of GCAAGGTTGTCCAGAG (sugars k4 d9 k3, PS), the target mRNA inhibition is, setting by setting: (A431, 0.0625 µM) 43%; (A431, 0.25 µM) 61%; (A431, 1 µM) 61%.
Where the note is “A431, 2 µM”, “TTTGTAAGTGCAACCA (sugars kkddddkekekddddd, PS)” registered a target mRNA inhibition of 98%.
The same measure, in the same setting: next, “TTTGTAAGTGCAACCA (sugars kkkddddkekeddddd, PS)”: 49%.
With TAATGTCTCAAACTCC (sugars k4 d9 k3, PS), the target mRNA inhibition by setting is: (A431, 0.0625 µM) 24%; (A431, 0.25 µM) 50%; (A431, 1 µM) 80%.
In the case of GATGTGTTTAGGCATT (sugars k4 d9 k3, PS), the target mRNA inhibition reads like this: (A431, 0.25 µM) 71% and 83%; (A431, 1 µM) 90% and 91%.
Consider TGGTCACAGTTCTTGG (sugars k4 d9 k3, PS), for which the target mRNA inhibition is, setting by setting: (A431, 0.0625 µM) 80%; (A431, 0.25 µM) 90%; (A431, 1 µM) 95%.
“CATTCAGAATTTCCAC (sugars kkkddddkekeddddd, PS)” showed a target mRNA inhibition (A431, 2 µM) of 86%.
Take “CGTCAATATATTCTTT (sugars kkkddddkdkdkdddd, PS)”: the target mRNA inhibition was 23% (A431, 0.0156 µM); 61% (A431, 0.0625 µM); 84% (A431, 0.25 µM); 93% (A431, 1 µM); 95% (A431, 2 µM).
Under “A431, 2 µM”, “ATTTCTTGATGTGGTG (sugars kddddkekekeddddd, PS)” displayed a target mRNA inhibition of 81%.
Regarding “TCTATTAGAGGGCTAG (sugars kkddddekekeddddd, PS)”, the target mRNA inhibition (A431, 2 µM) was found to be 67%.
With “GTTCTAACTCTTGGGC (sugars kkkddddkekeddddd, PS)”, the target mRNA inhibition (A431, 2 µM) was found to be 66%.
Regarding ACTCCTTATGTTTTGA (sugars k4 d9 k3, PS), the target mRNA inhibition by setting is: (A431, 0.0625 µM) 46%; (A431, 0.25 µM) 75%; (A431, 1 µM) 91%.
For the sequence “ATTCTCATGGTACAGG (sugars kkddddkekekddddd, PS)”, under “A431, 2 µM”, the target mRNA inhibition worked out at 76%.
On to “AACGCAATGCTGACTT (sugars kkkddddkekeddddd, PS)”, for which, for the setting “A431, 2 µM”, the target mRNA inhibition worked out at 83%.
In the case of “GTGTTATATTTGATCC (sugars k3 d4 k3 e1 d5, PS)”, the target mRNA inhibition (A431, 0.0156 µM) was 32%; the target mRNA inhibition (A431, 0.04 µM) is 50%; the target mRNA inhibition (A431, 0.0625 µM) worked out at 63%; the target mRNA inhibition (A431, 0.25 µM) turned out to be 84%; the target mRNA inhibition (A431, 1 µM) stood at 91%; the target mRNA inhibition (A431, 2 µM) is 94%.
As for CGTTCCAGGCCTCATT (sugars k4 d9 k3, PS), the target mRNA inhibition (A431, 0.0625 µM) was determined as 40%; the target mRNA inhibition (A431, 0.25 µM) is 60%; the target mRNA inhibition (A431, 1 µM) was 82%.
For CTGTTCTAACTCTTGG (sugars k4 d9 k3, PS) the same measures were 61%, 79% and 87%.
On to “GGAATTATGGAATTGC (sugars kkkddddkekekdddd, PS)”, for which the target mRNA inhibition (A431, 2 µM) is 66%.
As for AGAACTCAAGTCAGTA (sugars k4 d9 k3, PS), the target mRNA inhibition (A431, 0.0625 µM) is 38% and 62%; the target mRNA inhibition (A431, 0.25 µM) is 67% and 83%; the target mRNA inhibition (A431, 1 µM) is 86% and 88%.
With CTTCTGTTAGATACAA (sugars k4 d9 k3, PS), the target mRNA inhibition (A431, 0.0625 µM) turned out to be 46%; the target mRNA inhibition (A431, 0.25 µM) worked out at 73%; the target mRNA inhibition (A431, 1 µM) amounted to 90%.
“GTTATGAAATTATTGG (sugars kkdddddkekeddddd, PS)” returned a target mRNA inhibition (A431, 2 µM) of 68%.
For the sequence TTTTAGAAAGGACACG (sugars k4 d9 k3, PS), the target mRNA inhibition is, setting by setting: (A431, 0.0625 µM) 42%; (A431, 0.25 µM) 67%; (A431, 1 µM) 85%.
Take “TATTCTCATGGTACAG (sugars k3 d4 k3 e1 d5, PS)”: the target mRNA inhibition (A431, 2 µM) was found to be 79%.
Sequence “TCAGATGGGTACTTCT (sugars kkddddekekeddddd, PS)” came in with a target mRNA inhibition (A431, 0.0156 µM) of 8%; a target mRNA inhibition (A431, 0.0625 µM) of 30%; a target mRNA inhibition (A431, 0.25 µM) of 61%; a target mRNA inhibition (A431, 1 µM) of 86%; a target mRNA inhibition (A431, 2 µM) of 91%.
Consider “TAATTCTATTAGAGGG (sugars k2 d4 e3 k2 d5, PS)”, for which the target mRNA inhibition (A431, 2 µM) was 59%.
On to GCTAATTTTCTGACTG (sugars k4 d9 k3, PS), for which the target mRNA inhibition by setting is: (A431, 0.0625 µM) 77% and 60%; (A431, 0.25 µM) 95% and 85%; (A431, 1 µM) 98% and 91%.
As to “CACTTTACATGCACGA (sugars kkdddddddddkekek, PS)”, the target mRNA inhibition by setting is: (A431, 0.0156 µM) 21%; (A431, 0.0625 µM) 38%; (A431, 0.25 µM) 69%; (A431, 1 µM) 89%.
“TGAAGATTGGCTCTGG (sugars k3 d4 k3 e1 d5, PS)” had a target mRNA inhibition (A431, 2 µM) of 61%.
Where the note is “A431, 2 µM”, “AGTTTTGTAAGTGCAA (sugars kkddddkekekddddd, PS)” yielded a target mRNA inhibition of 81%.
“TTATATTTGATCCTCA (sugars k2 d4 e3 k2 d5, PS)” had a target mRNA inhibition (A431, 2 µM) of 96%.
Take “GTGTTATATTTGATCC (sugars k2 d4 e3 k2 d5, PS)”: the target mRNA inhibition was 52% and 50% (A431, 0.04 µM); 98% (A431, 1 µM); 98% (A431, 2 µM).
With “GTTTTGTAAGTGCAAC (sugars kkddddkekekkdddd, PS)”, for the setting “A431, 2 µM”, the target mRNA inhibition amounted to 62%.
The sequence “GTGTTATATTTGATCC (sugars kkddddekekeddddd, PS)” displayed a target mRNA inhibition (A431, 2 µM) of 96%.
As for “GAGTATTGTTTTTGTG (sugars kkkddddkdkdkdddd, PS)”, the target mRNA inhibition (A431, 2 µM) is 54%.
In the case of GTTTCATATTCACCCG (sugars k4 d9 k3, PS), the target mRNA inhibition (A431, 0.0625 µM) was 82%; the target mRNA inhibition (A431, 0.25 µM) came out at 92%; the target mRNA inhibition (A431, 1 µM) was found to be 97%.
With “TCTATTAGAGGGCTAG (sugars kddddkekekeddddd, PS)”, under “A431, 2 µM”, the target mRNA inhibition was determined as 37%.
Turning to “GGAATTATGGAATTGC (sugars kkddddkekekddddd, PS)”, the target mRNA inhibition (A431, 2 µM) is 82%.
The same measure, in the same setting: next, “TTTATACCAGTGTCTT (sugars k3 d4 k3 e1 d5, PS)”: 80%.
Sequence “GCTTTAAACTCAGGTG (sugars kkddddkekekkdddd, PS)” gave a target mRNA inhibition (A431, 2 µM) of 50%.
